Measured values taken from the NIST ThermoML archive (doi:10.1021/je100148h).
“And” between values parts separate entries of the source, which are not always exact repeats. Equal entries are not always repeated. ± gives the expanded uncertainty stated by the source.

Conditions: Burnett expansion method

O=C=O [carbon dioxide]
343.13 K, Fluid (supercritical or subcritical phases)
Conditions	mass density
214.49 kPa	3.3311 ± 0.0094 kg/m3 and 3.3345 ± 0.0094 kg/m3
295.01 kPa	4.5929 ± 0.0094 kg/m3 and 4.5951 ± 0.0094 kg/m3
405.34 kPa	6.3329 ± 0.0095 kg/m3 and 6.3325 ± 0.0095 kg/m3
556.21 kPa	8.7319 ± 0.0097 kg/m3 and 8.7265 ± 0.0098 kg/m3
761.77 kPa	12.0399 ± 0.0096 kg/m3 and 12.0258 ± 0.0096 kg/m3
1040.8 kPa	16.6004 ± 0.0099 kg/m3 and 16.5719 ± 0.0099 kg/m3
1417 kPa	22.8886 ± 0.01 kg/m3 and 22.8367 ± 0.01 kg/m3
1919.8 kPa	31.5581 ± 0.01 kg/m3 and 31.4693 ± 0.01 kg/m3
2584.2 kPa	43.5107 ± 0.011 kg/m3 and 43.3646 ± 0.011 kg/m3
3447.3 kPa	59.9881 ± 0.012 kg/m3 and 59.7539 ± 0.012 kg/m3
4543 kPa	82.704 ± 0.014 kg/m3 and 82.3364 ± 0.014 kg/m3
5888.2 kPa	114.017 ± 0.03 kg/m3 and 113.448 ± 0.033 kg/m3
7469.2 kPa	157.178 ± 0.017 kg/m3 and 156.31 ± 0.016 kg/m3

[Ar] [argon]
Gas
Conditions	mass density
318.75 K, 217.45 kPa	3.2819 ± 0.0091 kg/m3 and 3.2809 ± 0.0091 kg/m3
318.75 K, 299.59 kPa	4.5227 ± 0.0091 kg/m3 and 4.5217 ± 0.0091 kg/m3
318.75 K, 412.69 kPa	6.2318 ± 0.0091 kg/m3 and 6.2327 ± 0.0091 kg/m3
318.75 K, 568.39 kPa	8.5885 ± 0.0091 kg/m3 and 8.5891 ± 0.0091 kg/m3
318.75 K, 782.65 kPa	11.8364 ± 0.0091 kg/m3 and 11.8363 ± 0.0091 kg/m3
318.75 K, 1077.3 kPa	16.3128 ± 0.0091 kg/m3 and 16.3112 ± 0.0091 kg/m3
318.75 K, 2800.7 kPa	42.6996 ± 0.0093 kg/m3 and 42.685 ± 0.0093 kg/m3
318.75 K, 3845.5 kPa	58.8449 ± 0.0093 kg/m3 and 58.8199 ± 0.0093 kg/m3
318.75 K, 5275.1 kPa	81.0918 ± 0.0094 kg/m3 and 81.0507 ± 0.0094 kg/m3
318.75 K, 7231.5 kPa	111.747 ± 0.0094 kg/m3 and 111.681 ± 0.0094 kg/m3
318.76 K, 157.82 kPa	2.3805 ± 0.0091 kg/m3 and 2.3815 ± 0.0091 kg/m3
318.76 K, 1482.3 kPa	22.4815 ± 0.0092 kg/m3 and 22.4774 ± 0.0092 kg/m3
318.76 K, 2038.2 kPa	30.9829 ± 0.0092 kg/m3 and 30.9748 ± 0.0092 kg/m3
